# What was measured:
# pool of microorganisms [1] = assay: Rapid decontamination and long term preservation challenge test in UCAR Latex 626 (pH 8.7); type: cell-based; settings: for active concentration, used alone, achieving 4 log10 reduction in bacterial concentration: UCAR Latex 626, pH 8.7, 1 h after initial inoculum; for concentration, used alone, achieving decontamination: 24 h after second inoculation at seven days
# Experimental: (§1) The antimicrobial profiles of DBNPA, BNPD, and a combination of DBNPA-BNPD (3:1 w/w) are tested in a commercial water-based latex (UCAR Latex 626 available from The Dow Chemical Company), and a generic mineral slurry sample. Commercial latexes vary in pH values from slightly acidic to basic. For the purpose of this study, a latex with a basic pH (8.7) is selected, as it is known that both BNPD and DBNPA have limited chemical stability at alkaline pH. Mineral slurries vary in pH, but most often they are alkaline. For the purpose of this study, a titanium dioxide slurry with pH of 8.35 was selected.
# (§2) Both the latex and the mineral slurry are free of contamination prior to testing. At time zero, the test matrices are inoculated with a pool of microorganisms (listed below) to a final concentration of 5×10^6 CFU/ml. Aliquots of the contaminated samples are weighed into a series of sterile containers followed by addition of the appropriate volume of biocide required to achieve the desired concentration. A control sample, lacking biocide, is included in each evaluation. Following biocide addition, samples are thoroughly mixed and aliquots are removed and streaked to tryptic soy agar plates, at various time points, for the enumeration of surviving microorganisms. All agar plates are incubated at 30° C. for 72 hours prior to assessment of viable bacteria. In all the ensuing results, a minimum of 4 log10 reduction in microorganism concentration, as compared to the control sample, is considered significant efficacy.
# (§3) Microorganisms: Twenty-four hour tryptic soy broth cultures are combined in equal parts for formulation inoculation at a final concentration of 5×10^6 CFU/ml. Organisms utilized: Pseudomonas aeruginosa (ATCC#15442), Pseudomonas aeruginosa (ATCC#10145), Staphylococcus aureus (ATCC#6538), Burkholderia cepacia (ATCC#25416), Pseudomonas fluorescens B (environmental isolate), Pseudomonas oleovorans (environmental isolate), Enterococcus sulfureus (environmental isolate). To assess the rapid decontamination efficacy of the biocides, aliquots are removed at 60 minutes following the initial inoculation, and streaked on tryptic soy agar plates for the enumeration of surviving microorganisms. The samples are stored at ambient conditions for three or seven days, respectively, at which point a second inoculation is administered, to test the long term preservation efficacy of the biocides. Aliquots are removed at 4 h and/or 24 h or 48 h following the second inoculation, and streaked on tryptic soy agar plates, for the enumeration of surviving microorganisms.
# (§4) Synergy: The synergy indexes reported here are measured and calculated using Formula 1. In this approach, a synergy index (SI) of 1 indicates additivity. If the synergy index is less than 1, synergy has occurred, while a synergy index greater than 1 indicates antagonism.
# (§5) Synergy Index=CA/Ca+CB/Cb (1)
# Ca=concentration of antimicrobial A, alone, producing a predetermined end-point
# Cb=concentration of antimicrobial B, alone, producing a predetermined end-point
# CA and CB=the concentrations of antimicrobials A and B, respectively, together in a mixture, that produce a predetermined end-point
# pool of microorganisms [2] = assay: Rapid decontamination and long term preservation challenge test in titanium dioxide mineral slurry (pH 8.35); type: cell-based; settings: for concentration, used alone, obtaining 4 log10 reduction in microorganisms: 48 hours after second inoculation at seven days; for effective concentration, used alone (4 log10 reduction): pH 8.35, 30 min after initial inoculation
# Experimental: as §1, §2
# as §3, with “To assess the rapid decontamination efficacy of the biocides, aliquots are removed at 60 minutes following the initial inoculation, and streaked on tryptic soy agar plates for the enumeration of surviving microorganisms.” left out
# as §4, §5
# Ca=concentration of antimicrobial A, alone, producing a predetermined end-point […]
# [3] = going from pH 6 to pH 8.9; cited from earlier work
Compound,"active concentration, used alone, achieving 4 log10 reduction in bacterial concentration (pool of microorganisms [1])","concentration, used alone, achieving decontamination (pool of microorganisms [1]; UCAR Latex 626)","effective active concentration (4 log10 reduction) (pool of microorganisms [1]; UCAR Latex 626, 24 h after second inoculation at three days)","concentration, used alone, obtaining 4 log10 reduction in microorganisms (pool of microorganisms [2])","effective concentration, used alone (4 log10 reduction) (pool of microorganisms [2])",factor of increase of rate of disappearance [3]
"O=[N+]([O-])C(Br)(CO)CO [BNPD, 2-bromo-2-nitro-1,3-propanediol]",> 600 ppm,95.7 ppm,95.7 ppm,35.1 ppm,> 600 ppm,
"N#CC(Br)(Br)C(N)=O [DBNPA, 2,2-dibromo-3-nitrilopropionamide]",140 ppm,did not achieve decontamination,,400 ppm,23.4 ppm,about 450
